Reference: PubChem BioAssay (NCI)
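In this assay, cells in 96-well plates receive the compound at five concentrations for 48 hours. Endpoints are linearly interpolated between the surrounding concentrations. TGI: concentration producing complete growth inhibition.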

Assays:
Assay in all cases: DTP human tumour cell line panel, 48 h
XF 498 CNS = tested on: XF 498 CNS
NCI-H460 lung = tested on: NCI-H460 lung
OVCAR-3 ovarian = tested on: OVCAR-3 ovarian
MOLT-4 leukemia = tested on: MOLT-4 leukemia
SK-OV-3 ovarian = tested on: SK-OV-3 ovarian
HCT-15 colon = tested on: HCT-15 colon
RXF-631 renal = tested on: RXF-631 renal
HCT-116 colon = tested on: HCT-116 colon
UO-31 renal = tested on: UO-31 renal
M14 melanoma = tested on: M14 melanoma
SNB-19 CNS = tested on: SNB-19 CNS
ACHN renal = tested on: ACHN renal
U251 CNS = tested on: U251 CNS
NCI-H23 lung = tested on: NCI-H23 lung
786-0 renal = tested on: 786-0 renal
SNB-78 CNS = tested on: SNB-78 CNS
K-562 leukemia = tested on: K-562 leukemia
IGROV1 ovarian = tested on: IGROV1 ovarian
DLD-1 colon = tested on: DLD-1 colon
SW-620 colon = tested on: SW-620 colon
CCRF-CEM leukemia = tested on: CCRF-CEM leukemia
HL-60(TB) leukemia = tested on: HL-60(TB) leukemia
KM20L2 colon = tested on: KM20L2 colon
A549 NSCLC = tested on: A549 NSCLC
HOP-92 NSCLC = tested on: HOP-92 NSCLC
HOP-18 NSCLC = tested on: HOP-18 NSCLC
HT29 colon = tested on: HT29 colon
UACC-62 melanoma = tested on: UACC-62 melanoma
SF-539 CNS = tested on: SF-539 CNS
SNB-75 CNS = tested on: SNB-75 CNS
MALME-3M melanoma = tested on: MALME-3M melanoma
SK-MEL-5 melanoma = tested on: SK-MEL-5 melanoma
A498 renal = tested on: A498 renal
HCC-2998 colon = tested on: HCC-2998 colon
KM12 colon = tested on: KM12 colon
COLO 205 colon = tested on: COLO 205 colon
UACC-257 melanoma = tested on: UACC-257 melanoma
SR leukemia = tested on: SR leukemia
OVCAR-8 ovarian = tested on: OVCAR-8 ovarian
CAKI-1 renal = tested on: CAKI-1 renal
HOP-62 NSCLC = tested on: HOP-62 NSCLC
SK-MEL-28 melanoma = tested on: SK-MEL-28 melanoma
RXF 393 renal = tested on: RXF 393 renal
TK-10 renal = tested on: TK-10 renal
SK-MEL-2 melanoma = tested on: SK-MEL-2 melanoma
LXFL 529 NSCLC = tested on: LXFL 529 NSCLC
NCI-H522 lung = tested on: NCI-H522 lung
DMS 273 small cell lung = tested on: DMS 273 small cell lung
EKVX NSCLC = tested on: EKVX NSCLC
LOX IMVI melanoma = tested on: LOX IMVI melanoma
DMS 114 small cell lung = tested on: DMS 114 small cell lung
SF-295 CNS = tested on: SF-295 CNS
SN12C renal = tested on: SN12C renal
NCI-H226 lung = tested on: NCI-H226 lung
OVCAR-5 ovarian = tested on: OVCAR-5 ovarian
SF-268 CNS = tested on: SF-268 CNS
OVCAR-4 ovarian = tested on: OVCAR-4 ovarian
RPMI-8226 leukemia = tested on: RPMI-8226 leukemia
M19-MEL melanoma = tested on: M19-MEL melanoma

Measured: TGI

C=CCN=C1N=C(C)C(C(=O)OCC)S1 (stereo unspecified)
> 100 µM: XF 498 CNS | NCI-H460 lung | OVCAR-3 ovarian | MOLT-4 leukemia | SK-OV-3 ovarian | HCT-15 colon | RXF-631 renal | HCT-116 colon | UO-31 renal | M14 melanoma | SNB-19 CNS | ACHN renal | U251 CNS | NCI-H23 lung | 786-0 renal | SNB-78 CNS | K-562 leukemia | IGROV1 ovarian | DLD-1 colon | SW-620 colon | CCRF-CEM leukemia | HL-60(TB) leukemia | KM20L2 colon | A549 NSCLC | HOP-92 NSCLC | HOP-18 NSCLC | HT29 colon | UACC-62 melanoma | SF-539 CNS | SNB-75 CNS | MALME-3M melanoma | SK-MEL-5 melanoma | A498 renal | HCC-2998 colon | KM12 colon | COLO 205 colon | UACC-257 melanoma | SR leukemia | OVCAR-8 ovarian | CAKI-1 renal | HOP-62 NSCLC | SK-MEL-28 melanoma | RXF 393 renal | TK-10 renal | SK-MEL-2 melanoma | LXFL 529 NSCLC | NCI-H522 lung | DMS 273 small cell lung | EKVX NSCLC | LOX IMVI melanoma | DMS 114 small cell lung | SF-295 CNS | SN12C renal | NCI-H226 lung | OVCAR-5 ovarian | SF-268 CNS | OVCAR-4 ovarian | RPMI-8226 leukemia

O=C(/C=C/c1ccccc1O)c1cccs1
45.5 µM: A498 renal
> 100 µM: XF 498 CNS | NCI-H460 lung | OVCAR-3 ovarian | MOLT-4 leukemia | SK-OV-3 ovarian | HCT-15 colon | RXF-631 renal | HCT-116 colon | UO-31 renal | M14 melanoma | SNB-19 CNS | ACHN renal | U251 CNS | NCI-H23 lung | 786-0 renal | SNB-78 CNS | K-562 leukemia | IGROV1 ovarian | DLD-1 colon | SW-620 colon | CCRF-CEM leukemia | HL-60(TB) leukemia | KM20L2 colon | A549 NSCLC | HOP-18 NSCLC | HT29 colon | M19-MEL melanoma | UACC-62 melanoma | SF-539 CNS | SNB-75 CNS | MALME-3M melanoma | SK-MEL-5 melanoma | HCC-2998 colon | KM12 colon | COLO 205 colon | UACC-257 melanoma | SR leukemia | OVCAR-8 ovarian | CAKI-1 renal | HOP-62 NSCLC | SK-MEL-28 melanoma | RXF 393 renal | TK-10 renal | SK-MEL-2 melanoma | LXFL 529 NSCLC | NCI-H522 lung | DMS 273 small cell lung | EKVX NSCLC | LOX IMVI melanoma | SF-295 CNS | SN12C renal | NCI-H226 lung | OVCAR-5 ovarian | SF-268 CNS | OVCAR-4 ovarian

Cn1c2c(c3ccccc31)CCN(CCCN1CCN(c3cccc(Cl)c3)CC1)C2=O
29 µM: HT29 colon
> 100 µM: SK-OV-3 ovarian | HCT-15 colon | DLD-1 colon | SW-620 colon | CCRF-CEM leukemia | A549 NSCLC | TK-10 renal | EKVX NSCLC | SF-268 CNS
90.7 µM: RXF-631 renal
24.8 µM: HCT-116 colon
86.2 µM: SNB-19 CNS
32.1 µM: SF-539 CNS
41.1 µM: HOP-62 NSCLC
11.1 µM: KM20L2 colon
62.4 µM: SN12C renal
66.1 µM: IGROV1 ovarian
36.1 µM: SK-MEL-5 melanoma
77.4 µM: OVCAR-8 ovarian
35.8 µM: K-562 leukemia
12.7 µM: U251 CNS
34.5 µM: 786-0 renal
35 µM: RPMI-8226 leukemia
24.2 µM: HL-60(TB) leukemia
10 µM: A498 renal
50.8 µM: LOX IMVI melanoma
34.3 µM: SK-MEL-28 melanoma
44.4 µM: DMS 114 small cell lung
31.8 µM: COLO 205 colon
42.5 µM: M19-MEL melanoma
38.4 µM: CAKI-1 renal
55.3 µM: MOLT-4 leukemia
96.8 µM: ACHN renal
79.9 µM: NCI-H522 lung
39.2 µM: UACC-62 melanoma
40.1 µM: M14 melanoma
32.6 µM: UO-31 renal
29.9 µM: NCI-H460 lung
84.5 µM: DMS 273 small cell lung
27.6 µM: XF 498 CNS
83.1 µM: HOP-18 NSCLC
66.9 µM: NCI-H23 lung
32.2 µM: LXFL 529 NSCLC
49.7 µM: RXF 393 renal
18.7 µM: HOP-92 NSCLC

CCCCNC(=O)NNC(=O)c1cc(/C=C/c2cccc([N+](=O)[O-])c2)ncn1
33.7 µM: SW-620 colon
44.8 µM: U251 CNS
> 100 µM: XF 498 CNS | NCI-H460 lung | OVCAR-3 ovarian | MOLT-4 leukemia | SK-OV-3 ovarian | HCT-15 colon | RXF-631 renal | HCT-116 colon | UO-31 renal | M14 melanoma | SNB-19 CNS | ACHN renal | NCI-H23 lung | 786-0 renal | SNB-78 CNS | K-562 leukemia | IGROV1 ovarian | DLD-1 colon | CCRF-CEM leukemia | HL-60(TB) leukemia | KM20L2 colon | A549 NSCLC | HOP-92 NSCLC | HOP-18 NSCLC | HT29 colon | M19-MEL melanoma | UACC-62 melanoma | SNB-75 CNS | MALME-3M melanoma | SK-MEL-5 melanoma | A498 renal | HCC-2998 colon | KM12 colon | COLO 205 colon | UACC-257 melanoma | SR leukemia | OVCAR-8 ovarian | CAKI-1 renal | HOP-62 NSCLC | SK-MEL-28 melanoma | RXF 393 renal | TK-10 renal | SK-MEL-2 melanoma | NCI-H522 lung | DMS 273 small cell lung | EKVX NSCLC | LOX IMVI melanoma | DMS 114 small cell lung | SF-295 CNS | SN12C renal | NCI-H226 lung | OVCAR-5 ovarian | SF-268 CNS
59.8 µM: RPMI-8226 leukemia

CC(=O)c1cccc(NC(=O)C(=O)C(C(=O)NN)c2ccccc2)c1 (stereo unspecified)
> 100 µM: XF 498 CNS | NCI-H460 lung | OVCAR-3 ovarian | MOLT-4 leukemia | SK-OV-3 ovarian | HCT-15 colon | RXF-631 renal | HCT-116 colon | UO-31 renal | M14 melanoma | SNB-19 CNS | ACHN renal | U251 CNS | NCI-H23 lung | 786-0 renal | K-562 leukemia | IGROV1 ovarian | DLD-1 colon | SW-620 colon | CCRF-CEM leukemia | KM20L2 colon | A549 NSCLC | HOP-92 NSCLC | HOP-18 NSCLC | HT29 colon | M19-MEL melanoma | UACC-62 melanoma | SF-539 CNS | SNB-75 CNS | MALME-3M melanoma | SK-MEL-5 melanoma | A498 renal | HCC-2998 colon | KM12 colon | COLO 205 colon | UACC-257 melanoma | OVCAR-8 ovarian | CAKI-1 renal | HOP-62 NSCLC | SK-MEL-28 melanoma | RXF 393 renal | TK-10 renal | SK-MEL-2 melanoma | LXFL 529 NSCLC | NCI-H522 lung | DMS 273 small cell lung | EKVX NSCLC | LOX IMVI melanoma | DMS 114 small cell lung | SN12C renal | NCI-H226 lung | OVCAR-5 ovarian | SF-268 CNS | OVCAR-4 ovarian | RPMI-8226 leukemia
